Assay results as given in the supplement of paper PMC10307832.

Columns and labels:
Experiment in all cases: relative viability (nuclei count vs DMSO), 5 days (fraction); higher = more cells survive
[1] = compound: CN(c1ncccc1CNc1nc(Nc2ccc3c(c2)CC(=O)N3)ncc1C(F)(F)F)S(C)(=O)=O + CS(=O)(=O)CCNCc1ccc(-c2ccc3ncnc(Nc4ccc(OCc5cccc(F)c5)c(Cl)c4)c3c2)o1 [Lapatinib] (partner 2 µM)
Summary of the method: (§1)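 Lung cancer cell lines, seeded in 1536-well plates, were treated the following day by pin tool with a single drug or with five library-drug doses (not always all listed) in √10 steps on top of a fixed anchor-drug dose. Cells were fixed and nuclei stained in one step after 5 days, and nuclei were counted. Relative viability is the nuclei count for treated wells divided by that for vehicle wells, reported as medians of duplicate plates.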

[2] = compound: CN(c1ncccc1CNc1nc(Nc2ccc3c(c2)CC(=O)N3)ncc1C(F)(F)F)S(C)(=O)=O + C[C@@H](Oc1cc(-c2cnn(C3CCNCC3)c2)cnc1N)c1c(Cl)ccc(F)c1Cl [Crizotinib] (partner 1 µM)
Summary of the method: as §1

[3] = compound: CN(c1ncccc1CNc1nc(Nc2ccc3c(c2)CC(=O)N3)ncc1C(F)(F)F)S(C)(=O)=O + Cc1nc(Nc2ncc(C(=O)Nc3c(C)cccc3Cl)s2)cc(N2CCN(CCO)CC2)n1 [Dasatinib] (partner 0.075 µM)
Summary of the method: as §1

[4] = compound: CN(c1ncccc1CNc1nc(Nc2ccc3c(c2)CC(=O)N3)ncc1C(F)(F)F)S(C)(=O)=O + Nc1nc2[nH]cc(CCc3ccc(C(=O)N[C@@H](CCC(=O)O)C(=O)O)cc3)c2c(=O)[nH]1 [Pemetrexed] (partner 0.2 µM)
Summary of the method: as §1

Cell Line: RERF-LC-KJ
- relative viability ([1]; first compound 0.01 µM): 0.926
- relative viability ([1]; first compound 0.03162 µM): 0.988
- relative viability ([1]; first compound 0.1 µM): 0.854
- relative viability ([1]; first compound 0.3162 µM): 0.886
- relative viability ([1]; first compound 1 µM): 0.91
- relative viability ([2]; first compound 0.01 µM): 0.841
- relative viability ([2]; first compound 0.03162 µM): 0.823
- relative viability ([2]; first compound 0.1 µM): 0.85
- relative viability ([2]; first compound 0.3162 µM): 0.779
- relative viability ([2]; first compound 1 µM): 0.86
- relative viability ([3]; first compound 0.01 µM): 0.767
- relative viability ([3]; first compound 0.03162 µM): 0.809
- relative viability ([3]; first compound 0.1 µM): 0.708
- relative viability ([3]; first compound 0.3162 µM): 0.723
- relative viability ([3]; first compound 1 µM): 0.743
- relative viability ([4]; first compound 0.01 µM): 0.428
- relative viability ([4]; first compound 0.03162 µM): 0.355
- relative viability ([4]; first compound 0.1 µM): 0.496
- relative viability ([4]; first compound 0.3162 µM): 0.515
- relative viability ([4]; first compound 1 µM): 0.575

Cell Line: NCI-H358
- relative viability ([1]; first compound 0.01 µM): 0.449
- relative viability ([1]; first compound 0.03162 µM): 0.414
- relative viability ([1]; first compound 0.1 µM): 0.42
- relative viability ([1]; first compound 0.3162 µM): 0.431
- relative viability ([1]; first compound 1 µM): 0.397
- relative viability ([2]; first compound 0.01 µM): 0.608
- relative viability ([2]; first compound 0.03162 µM): 0.449
- relative viability ([2]; first compound 0.1 µM): 0.515
- relative viability ([2]; first compound 0.3162 µM): 0.449
- relative viability ([2]; first compound 1 µM): 0.303
- relative viability ([3]; first compound 0.01 µM): 0.202
- relative viability ([3]; first compound 0.03162 µM): 0.15
- relative viability ([3]; first compound 0.1 µM): 0.137
- relative viability ([3]; first compound 0.3162 µM): 0.22
- relative viability ([3]; first compound 1 µM): 0.167
- relative viability ([4]; first compound 0.01 µM): 0.148
- relative viability ([4]; first compound 0.03162 µM): 0.164
- relative viability ([4]; first compound 0.1 µM): 0.169
- relative viability ([4]; first compound 0.3162 µM): 0.177
- relative viability ([4]; first compound 1 µM): 0.156

Cell Line: LC-2-ad
- relative viability ([1]; first compound 0.01 µM): 1.12
- relative viability ([1]; first compound 0.03162 µM): 0.958
- relative viability ([1]; first compound 0.1 µM): 1
- relative viability ([1]; first compound 0.3162 µM): 0.864
- relative viability ([1]; first compound 1 µM): 0.756
- relative viability ([2]; first compound 0.01 µM): 0.491
- relative viability ([2]; first compound 0.03162 µM): 0.465
- relative viability ([2]; first compound 0.1 µM): 0.514
- relative viability ([2]; first compound 0.3162 µM): 0.435
- relative viability ([2]; first compound 1 µM): 0.469
- relative viability ([3]; first compound 0.01 µM): 0.414
- relative viability ([3]; first compound 0.03162 µM): 0.484
- relative viability ([3]; first compound 0.1 µM): 0.492
- relative viability ([3]; first compound 0.3162 µM): 0.399
- relative viability ([3]; first compound 1 µM): 0.335
- relative viability ([4]; first compound 0.01 µM): 0.283
- relative viability ([4]; first compound 0.03162 µM): 0.3
- relative viability ([4]; first compound 0.1 µM): 0.274
- relative viability ([4]; first compound 0.3162 µM): 0.285
- relative viability ([4]; first compound 1 µM): 0.274

Cell Line: HCC-15
- relative viability ([1]; first compound 0.01 µM): 0.876
- relative viability ([1]; first compound 0.03162 µM): 0.905
- relative viability ([1]; first compound 0.1 µM): 0.72
- relative viability ([1]; first compound 0.3162 µM): 0.775
- relative viability ([1]; first compound 1 µM): 0.723
- relative viability ([2]; first compound 0.01 µM): 0.821
- relative viability ([2]; first compound 0.03162 µM): 0.746
- relative viability ([2]; first compound 0.1 µM): 0.739
- relative viability ([2]; first compound 0.3162 µM): 0.707
- relative viability ([2]; first compound 1 µM): 0.6
- relative viability ([3]; first compound 0.01 µM): 0.541
- relative viability ([3]; first compound 0.03162 µM): 0.602
- relative viability ([3]; first compound 0.1 µM): 0.497
- relative viability ([3]; first compound 0.3162 µM): 0.428
- relative viability ([3]; first compound 1 µM): 0.408
- relative viability ([4]; first compound 0.01 µM): 0.22
- relative viability ([4]; first compound 0.03162 µM): 0.237
- relative viability ([4]; first compound 0.1 µM): 0.218
- relative viability ([4]; first compound 0.3162 µM): 0.21
- relative viability ([4]; first compound 1 µM): 0.215

Cell Line: NCI-H2405
- relative viability ([1]; first compound 0.01 µM): 1.16
- relative viability ([1]; first compound 0.03162 µM): 1.08
- relative viability ([1]; first compound 0.1 µM): 0.995
- relative viability ([1]; first compound 0.3162 µM): 1.02
- relative viability ([1]; first compound 1 µM): 0.91
- relative viability ([2]; first compound 0.01 µM): 0.865
- relative viability ([2]; first compound 0.03162 µM): 0.835
- relative viability ([2]; first compound 0.1 µM): 0.801
- relative viability ([2]; first compound 0.3162 µM): 0.813
- relative viability ([2]; first compound 1 µM): 0.744
- relative viability ([3]; first compound 0.01 µM): 0.229
- relative viability ([3]; first compound 0.03162 µM): 0.197
- relative viability ([3]; first compound 0.1 µM): 0.184
- relative viability ([3]; first compound 0.3162 µM): 0.22
- relative viability ([3]; first compound 1 µM): 0.218
- relative viability ([4]; first compound 0.01 µM): 1.06
- relative viability ([4]; first compound 0.03162 µM): 1.01
- relative viability ([4]; first compound 0.1 µM): 0.984
- relative viability ([4]; first compound 0.3162 µM): 0.924
- relative viability ([4]; first compound 1 µM): 0.832

Cell Line: LXF-289
- relative viability ([1]; first compound 0.01 µM): 0.949
- relative viability ([1]; first compound 0.03162 µM): 0.883
- relative viability ([1]; first compound 0.1 µM): 0.9
- relative viability ([1]; first compound 0.3162 µM): 0.925
- relative viability ([1]; first compound 1 µM): 0.89
- relative viability ([2]; first compound 0.01 µM): 0.851
- relative viability ([2]; first compound 0.03162 µM): 0.875
- relative viability ([2]; first compound 0.1 µM): 0.824
- relative viability ([2]; first compound 0.3162 µM): 0.788
- relative viability ([2]; first compound 1 µM): 0.773
- relative viability ([3]; first compound 0.01 µM): 0.187
- relative viability ([3]; first compound 0.03162 µM): 0.181
- relative viability ([3]; first compound 0.1 µM): 0.129
- relative viability ([3]; first compound 0.3162 µM): 0.12
- relative viability ([3]; first compound 1 µM): 0.121
- relative viability ([4]; first compound 0.01 µM): 1.03
- relative viability ([4]; first compound 0.03162 µM): 0.829
- relative viability ([4]; first compound 0.1 µM): 0.864
- relative viability ([4]; first compound 0.3162 µM): 0.804
- relative viability ([4]; first compound 1 µM): 0.871

Cell Line: CAL-12T
- relative viability ([1]; first compound 0.01 µM): 0.65
- relative viability ([1]; first compound 0.03162 µM): 0.663
- relative viability ([1]; first compound 0.1 µM): 0.43
- relative viability ([1]; first compound 0.3162 µM): 0.591
- relative viability ([1]; first compound 1 µM): 0.627
- relative viability ([2]; first compound 0.01 µM): 0.619
- relative viability ([2]; first compound 0.03162 µM): 0.538
- relative viability ([2]; first compound 0.1 µM): 0.576
- relative viability ([2]; first compound 0.3162 µM): 0.566
- relative viability ([2]; first compound 1 µM): 0.593
- relative viability ([3]; first compound 0.01 µM): 0.35
- relative viability ([3]; first compound 0.03162 µM): 0.213
- relative viability ([3]; first compound 0.1 µM): 0.268
- relative viability ([3]; first compound 0.3162 µM): 0.191
- relative viability ([3]; first compound 1 µM): 0.136
- relative viability ([4]; first compound 0.01 µM): 1.24
- relative viability ([4]; first compound 0.03162 µM): 1.12
- relative viability ([4]; first compound 0.1 µM): 1.25
- relative viability ([4]; first compound 0.3162 µM): 1.36
- relative viability ([4]; first compound 1 µM): 0.982

Cell Line: COR-L23
- relative viability ([1]; first compound 0.01 µM): 0.924
- relative viability ([1]; first compound 0.03162 µM): 1.16
- relative viability ([1]; first compound 0.1 µM): 0.92
- relative viability ([1]; first compound 0.3162 µM): 0.883
- relative viability ([1]; first compound 1 µM): 0.628
- relative viability ([2]; first compound 0.01 µM): 0.653
- relative viability ([2]; first compound 0.03162 µM): 0.649
- relative viability ([2]; first compound 0.1 µM): 0.7
- relative viability ([2]; first compound 0.3162 µM): 0.594
- relative viability ([2]; first compound 1 µM): 0.486
- relative viability ([3]; first compound 0.01 µM): 0.458
- relative viability ([3]; first compound 0.03162 µM): 0.524
- relative viability ([3]; first compound 0.1 µM): 0.483
- relative viability ([3]; first compound 0.3162 µM): 0.413
- relative viability ([3]; first compound 1 µM): 0.323
- relative viability ([4]; first compound 0.01 µM): 0.202
- relative viability ([4]; first compound 0.03162 µM): 0.18
- relative viability ([4]; first compound 0.1 µM): 0.211
- relative viability ([4]; first compound 0.3162 µM): 0.205
- relative viability ([4]; first compound 1 µM): 0.203

Cell Line: NCI-H1755
- relative viability ([1]; first compound 0.01 µM): 1.09
- relative viability ([1]; first compound 0.03162 µM): 1.08
- relative viability ([1]; first compound 0.1 µM): 1.01
- relative viability ([1]; first compound 0.3162 µM): 0.961
- relative viability ([1]; first compound 1 µM): 0.957
- relative viability ([2]; first compound 0.01 µM): 0.873
- relative viability ([2]; first compound 0.03162 µM): 0.94
- relative viability ([2]; first compound 0.1 µM): 0.889
- relative viability ([2]; first compound 0.3162 µM): 0.781
- relative viability ([2]; first compound 1 µM): 0.777
- relative viability ([3]; first compound 0.01 µM): 0.414
- relative viability ([3]; first compound 0.03162 µM): 0.412
- relative viability ([3]; first compound 0.1 µM): 0.329
- relative viability ([3]; first compound 0.3162 µM): 0.365
- relative viability ([3]; first compound 1 µM): 0.325
- relative viability ([4]; first compound 0.01 µM): 0.478
- relative viability ([4]; first compound 0.03162 µM): 0.451
- relative viability ([4]; first compound 0.1 µM): 0.426
- relative viability ([4]; first compound 0.3162 µM): 0.398
- relative viability ([4]; first compound 1 µM): 0.487
